The subject of data set [1] is rats. Nature of the data set: Margin of safety: incidence of diarrhea with magnesium preparations in drinking water. Particulars: elemental magnesium via drinking water for 4 days, non-linear regression. On the procedure:
Animals: Adult male Sprague-Dawley rats were obtained from Wei Tong Li Hua Beijing, China. Rats were individually-housed with free access to standard food and water under a 12:12 h reversed light-dark cycle, with light onset at 8:00 p.m. […] All experimental procedures were approved by the Tsinghua University Committees on Animal Care.
(Magceutics Inc., USA), Magnesium chloride and glycinate (Modern Eastern Fine Chemical, China), magnesium gluconate and citrate (Sigma-Aldrich, Germany). Lactose was obtained from Biobasic Inc (Beijing, China).
The magnesium dose dissolved in the daily intake volume of water was determined based on intake of ˜30 ml/day/rat. Animals were supplied with the magnesium supplemented drinking water for 4 days, after which time the number of animals that developed diarrhea was monitored and calculated as a percentage of the total number of animals in the respective group.
(§1) Statistical analysis: All data were approximated with a normal distribution. […] One-way analysis of variance was used to analyze the cerebrospinal fluid data. GraphPad prism was used for data analysis (version 5.00, GraphPad software Inc.).

A short description of data set [2]: Magnesium content in the cerebrospinal fluid. The settings on record: 24 days of treatment, approximately 50 mg/kg/day elemental magnesium via drinking water.
Description: as §1

The conditions of data set [3]: cited from earlier work.
Another data set has as its system diabetic patients. The settings on record: nearly 1 g of magnesium daily for 1 month; cited from earlier work.
Data set [4] concerns rats. The settings on record: young and aged rats, cited from earlier work.

In the case of magnesium gluconate, the “TD50 (toxic dose required to induce diarrhea in 50% of animals)” value with rats [1] worked out at 99.7 mg/kg/day.
Regarding `[Cl-].[Cl-].[Mg+2]` [magnesium chloride], the “TD50 (toxic dose required to induce diarrhea in 50% of animals)” value with rats [1] is 90.0 mg/kg/day. In data set [2], the “magnesium concentration in cerebrospinal fluid ([Mg2+]CSF)” value is on record as “relatively limited effect”.
As to `[O]=[Mg]` [magnesium oxide], the magnesium absorption rate entry in data set [3] (Firoz and Graber 2001) is listed as “about 4%”. The bioavailability in data set [3] (Ranade and Somberg 2001) is given as 4%. For the same molecule, in the data set with diabetic patients, the “increase of serum magnesium level” value was “about 10%” and the metabolic control entry was “only minor improvement”. In addition, in the data set on rats [4] (food containing 2% magnesium oxide for 8 days), the cognitive function entry is given as “some sign of improvement”. Also, in the data set with rats [4] (food containing 2% magnesium oxide), the side-effect entry is “diarrhea and weight loss”.

By bioavailability is commonly meant dose-corrected exposure relative to a reference, in per cent.

Values taken from patent US8377473B2, “Slow release magnesium composition and uses thereof” (Magceutics, Inc., priority 2009, dated 2013).
